Source: PubChem BioAssay AID248 (DTP/NCI, 2004)
Several values for one entry are separate records, joined by “and”; a condition that tells them apart may be missing. Equal values may be shown once. Inconclusive results and toxic doses are left out. No stated cut-off is given here; in the data, active means T/C of 150% or more; inactive means T/C below 125%.

Test system: L1210 leukemia ip in BDF1 mice, survival T/C
Test: NCI In Vivo Anticancer Drug Screen. Data for tumor model L1210 Leukemia (intraperitoneal) in B6D2F1 (BDF1) mice
Conditions: endpoint: mean survival time, higher = longer survival
In short: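 Survival endpoint. Drug-treated group vs vehicle group, expressed as T divided by C. Tumor passaged by transplantation.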

[1] = dose: 50.0 mg/kg/injection, schedule: Q01DX001 (ip), vehicle: carboxymethylcellulose (CMC)
[2] = dose: 100.0 mg/kg/injection, schedule: Q01DX001 (ip), vehicle: carboxymethylcellulose (CMC)
[3] = dose: 200.0 mg/kg/injection, schedule: Q01DX001 (ip), vehicle: carboxymethylcellulose (CMC)
[4] = dose: 400.0 mg/kg/injection, schedule: Q01DX001 (ip), vehicle: carboxymethylcellulose (CMC)
[5] = dose: 100.0 mg/kg/injection, schedule: Q01DX009 (ip), vehicle: Klucel (hydroxypropylcellulose) (HPC)
[6] = dose: 200.0 mg/kg/injection, schedule: Q01DX009 (ip), vehicle: Klucel (hydroxypropylcellulose) (HPC)
[7] = dose: 400.0 mg/kg/injection, schedule: Q01DX009 (ip), vehicle: Klucel (hydroxypropylcellulose) (HPC)
[8] = dose: 100.0 mg/kg/injection, schedule: Q04DX003 (ip), vehicle: saline with Tween-80
[9] = dose: 200.0 mg/kg/injection, schedule: Q04DX003 (ip), vehicle: saline with Tween-80
[10] = dose: 400.0 mg/kg/injection, schedule: Q04DX003 (ip), vehicle: saline with Tween-80
[11] = dose: 100.0 mg/kg/injection, schedule: Q01DX001 (ip), vehicle: other
[12] = dose: 100.0 mg/kg/injection, schedule: Q01DX009 (ip), vehicle: saline with Tween-80
[13] = dose: 200.0 mg/kg/injection, schedule: Q01DX001 (ip), vehicle: other
[14] = dose: 200.0 mg/kg/injection, schedule: Q01DX009 (ip), vehicle: saline with Tween-80
[15] = dose: 400.0 mg/kg/injection, schedule: Q01DX001 (ip), vehicle: other
[16] = dose: 400.0 mg/kg/injection, schedule: Q01DX009 (ip), vehicle: saline with Tween-80
[17] = dose: 100.0 mg/kg/injection, schedule: Q01DX001 (ip), vehicle: saline
[18] = dose: 200.0 mg/kg/injection, schedule: Q01DX001 (ip), vehicle: saline
[19] = dose: 400.0 mg/kg/injection, schedule: Q01DX001 (ip), vehicle: saline
[20] = dose: 50.0 mg/kg/injection, schedule: Q01DX009 (ip), vehicle: saline with Tween-80

Measured: T/C

CN1CCN(C(=O)Nc2ccc(N=Nc3ccccc3)cc2)CC1
inactive: dose: 200.0 mg/kg/injection, schedule: Q04DX003 (ip), vehicle: Klucel (hydroxypropylcellulose) (HPC) 87 % of control

NC(=O)NNC(=O)NNC(N)=O
inactive: [1] 95 % of control | [2] 95 % of control | [3] 95 % of control | [4] 103 % of control

Cc1ccc(S(=O)(=O)Nc2c(C)cc([N+](=O)[O-])cc2C)cc1
inactive: [1] 119 % of control | [2] 96 % of control | [3] 102 % of control | [4] 100 % of control

O=C(Nc1ccc(Br)cc1)Oc1ccccc1C(=O)Nc1ccccc1
inactive: [5] 98 % of control | [6] 98 % of control | [7] 88 % of control

COC(=O)C(Cl)C(Cl)c1ccccc1 (centres undefined)
inactive: [8] 97 % of control | [9] 97 % of control | [10] 94 % of control

c1ccc2c(c1)CC1(Cc3ccccc3-2)C[N+]12CCCCC2
inactive: dose: 12.5 mg/kg/injection, schedule: Q04DX003 (ip), vehicle: saline 98 % of control | dose: 25.0 mg/kg/injection, schedule: Q04DX003 (ip), vehicle: saline 98 % of control | dose: 50.0 mg/kg/injection, schedule: Q04DX003 (ip), vehicle: saline 110 % of control

NC(C(=O)O)c1ccccc1C(=O)O (centres undefined)
inactive: [8] 96 % of control | [9] 103 % of control | [10] 103 % of control

CN(C)S(=O)(=O)c1ccc(NC(=O)CCl)cc1
inactive: [11] 98 % of control | [12] 106 % of control | dose: 100.0 mg/kg/injection, schedule: Q04DX003 (ip), vehicle: other 97 % of control | [13] 110 % of control | [14] 102 % of control | dose: 200.0 mg/kg/injection, schedule: Q04DX003 (ip), vehicle: other 103 % of control | [15] 93 % of control | [16] 100 % of control | dose: 400.0 mg/kg/injection, schedule: Q04DX003 (ip), vehicle: other 98 % of control

CC(=O)Nn1c(=O)c(=O)oc2ccccc21
inactive: dose: 75.0 mg/kg/injection, schedule: Q01DX001 (ip), vehicle: acetone 94 % of control | dose: 150.0 mg/kg/injection, schedule: Q01DX001 (ip), vehicle: acetone 93 % of control | dose: 300.0 mg/kg/injection, schedule: Q01DX001 (ip), vehicle: acetone 96 % of control

C(=N\n1cnc2c(SCc3ccccc3)ncnc21)/c1ccccc1
inactive: [11] 93 % of control | [13] 91 % of control | [15] 91 % of control

CCc1ccccc1NC(=O)COc1ccc(Cl)cc1
inactive: [5] 98 % of control | [6] 96 % of control | [7] 91 % of control

O=C(NCCSSCCNC(=O)c1ccccc1)c1ccccc1
inactive: [17] 92 % of control | [18] 96 % of control | [19] 100 % of control

C=C1c2c(Cl)cccc2C(C)(CC)c2cccc(Cl)c21
inactive: dose: 75.0 mg/kg/injection, schedule: Q01DX001 (ip), vehicle: Klucel (hydroxypropylcellulose) (HPC) 96 % of control | dose: 75.0 mg/kg/injection, schedule: Q01DX009 (ip), vehicle: Klucel (hydroxypropylcellulose) (HPC) 94 % of control | dose: 150.0 mg/kg/injection, schedule: Q01DX001 (ip), vehicle: Klucel (hydroxypropylcellulose) (HPC) 98 % of control | dose: 150.0 mg/kg/injection, schedule: Q01DX009 (ip), vehicle: Klucel (hydroxypropylcellulose) (HPC) 96 % of control | dose: 300.0 mg/kg/injection, schedule: Q01DX001 (ip), vehicle: Klucel (hydroxypropylcellulose) (HPC) 95 % of control | dose: 300.0 mg/kg/injection, schedule: Q01DX009 (ip), vehicle: Klucel (hydroxypropylcellulose) (HPC) 99 % of control

O=C(Nc1ccc(Cl)c(Cl)c1)Sc1ccc(Cl)cc1
inactive: dose: 25.0 mg/kg/injection, schedule: Q01DX009 (ip), vehicle: saline with Tween-80 100 % of control | [20] 103 % of control | [12] 101 % of control

CCCCCCCCCCCCCCCCCCn1cnc2ncnc(Cl)c21
inactive: dose: 12.5 mg/kg/injection, schedule: Q01DX005 (ip), vehicle: other 107 % of control | dose: 25.0 mg/kg/injection, schedule: Q01DX005 (ip), vehicle: other 102 % of control | dose: 50.0 mg/kg/injection, schedule: Q01DX005 (ip), vehicle: other 98 % of control | dose: 100.0 mg/kg/injection, schedule: Q01DX005 (ip), vehicle: other 106 % of control | dose: 200.0 mg/kg/injection, schedule: Q01DX005 (ip), vehicle: other 93 % of control

Cc1ccc(S(=O)(=O)N(Cl)Cl)cc1
inactive: dose: 6.25 mg/kg/injection, schedule: Q01DX009 (ip), vehicle: Klucel (hydroxypropylcellulose) (HPC) 115 % of control | dose: 6.25 mg/kg/injection, schedule: Q04DX003 (ip), vehicle: Klucel (hydroxypropylcellulose) (HPC) 94 % of control | dose: 12.5 mg/kg/injection, schedule: Q04DX003 (ip), vehicle: Klucel (hydroxypropylcellulose) (HPC) 98 % of control | dose: 25.0 mg/kg/injection, schedule: Q01DX009 (ip), vehicle: Klucel (hydroxypropylcellulose) (HPC) 94 % of control | dose: 25.0 mg/kg/injection, schedule: Q04DX003 (ip), vehicle: Klucel (hydroxypropylcellulose) (HPC) 102 % of control | [17] 110 % of control | [18] 101 % of control | [19] 108 % of control

c1ccc([P+](c2ccccc2)(c2ccccc2)c2ccc(-c3ccc([P+](c4ccccc4)(c4ccccc4)c4ccccc4)cc3)cc2)cc1
inactive: dose: 1.25 mg/kg/injection, schedule: Q01DX009 (ip), vehicle: Klucel (hydroxypropylcellulose) (HPC) 102 % of control | dose: 3.5 mg/kg/injection, schedule: Q01DX009 (ip), vehicle: Klucel (hydroxypropylcellulose) (HPC) 105 % of control

O=S(NOCCCCONS(=O)c1ccccc1)c1ccccc1 (centres undefined)
inactive: dose: 25.0 mg/kg/injection, schedule: Q01DX001 (ip), vehicle: saline with Tween-80 100 % of control | dose: 25.0 mg/kg/injection, schedule: Q04DX003 (ip), vehicle: saline with Tween-80 93 % of control | dose: 50.0 mg/kg/injection, schedule: Q01DX001 (ip), vehicle: saline with Tween-80 95 % of control | [20] 94 % of control and 102 % of control | dose: 50.0 mg/kg/injection, schedule: Q04DX003 (ip), vehicle: saline with Tween-80 96 % of control | dose: 100.0 mg/kg/injection, schedule: Q01DX001 (ip), vehicle: saline with Tween-80 95 % of control and 90 % of control | [12] 95 % of control and 96 % of control | dose: 100.0 mg/kg/injection, schedule: Q04DX002 (ip), vehicle: saline with Tween-80 98 % of control and 89 % of control | [8] 89 % of control | dose: 200.0 mg/kg/injection, schedule: Q01DX001 (ip), vehicle: saline with Tween-80 90 % of control | [14] 96 % of control and 92 % of control | dose: 200.0 mg/kg/injection, schedule: Q04DX002 (ip), vehicle: saline with Tween-80 100 % of control and 91 % of control | [9] 94 % of control | [16] 90 % of control | dose: 400.0 mg/kg/injection, schedule: Q04DX002 (ip), vehicle: saline with Tween-80 102 % of control

Cc1ccc(S(=O)(=O)Nc2ccc3ncccc3c2[N+](=O)[O-])cc1
inactive: [17] 94 % of control | [18] 93 % of control | [19] 98 % of control
